{"source": "PubChem BioAssay AID743119", "about": "(The Scripps Research Institute Molecular Screening Center, 2013)", "key": {"[1]": {"target": "Acyl-protein thioesterase 1 (Homo sapiens) (UniProt O75608)", "sequence (O75608 whole entry, looked up)": "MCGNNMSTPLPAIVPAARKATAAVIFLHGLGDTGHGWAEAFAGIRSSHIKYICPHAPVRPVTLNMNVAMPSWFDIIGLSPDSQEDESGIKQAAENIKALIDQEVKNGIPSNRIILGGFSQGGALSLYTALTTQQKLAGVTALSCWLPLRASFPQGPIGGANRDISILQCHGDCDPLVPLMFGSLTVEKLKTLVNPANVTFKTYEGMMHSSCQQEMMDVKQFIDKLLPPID", "test": "LYPLA1 and LYPLA2 inhibition in intact cells, late-stage follow-up, HeLa cells, in situ treatment, fluorescence gel (AID 743119)", "conditions": "gel-based ABPP FP-Rh fluorescence, LYPLA1"}, "[2]": {"target": "Acyl-protein thioesterase 2 (Homo sapiens) (UniProt O95372)", "sequence (O95372 whole entry, looked up)": "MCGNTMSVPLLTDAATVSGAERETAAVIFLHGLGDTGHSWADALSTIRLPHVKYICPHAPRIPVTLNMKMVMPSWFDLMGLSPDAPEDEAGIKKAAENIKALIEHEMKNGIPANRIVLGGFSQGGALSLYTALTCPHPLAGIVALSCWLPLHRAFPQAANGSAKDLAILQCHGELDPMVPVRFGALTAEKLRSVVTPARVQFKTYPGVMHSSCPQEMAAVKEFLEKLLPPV", "test": "LYPLA1 and LYPLA2 inhibition in intact cells, late-stage follow-up, HeLa cells, in situ treatment, fluorescence gel (AID 743119)", "conditions": "gel-based ABPP FP-Rh fluorescence, LYPLA2"}}}
{"smiles": "O=C(ON1C(=O)C2CN(C(=O)N3CCOCC3)CCN2C1=O)N1CCC(CCc2ccc(Cl)cc2)CC1", "note": "(configuration not stated)", "values": [{"measurement": "IC50", "setting": "[1]", "result": 87, "unit": "nM"}, {"measurement": "IC50", "setting": "[2]", "result": 143, "unit": "nM"}]}
